Experiments:
Triticum aestivum [1] = experiment: Post-emergence herbicidal evaluation, TRZAW; conditions: three weeks after treatment
Glycine max [2] = experiment: Pre-emergence herbicidal evaluation, GLXMA; type: in vivo; conditions: three weeks after treatment
Text: (§1) The treated pots are then placed on greenhouse benches, watered and cared for in accordance with conventional greenhouse procedures.

Oryza sativum [3] = experiment: Pre-emergence herbicidal evaluation, ORYSA; type: in vivo; conditions: three weeks after treatment
Text: as §1

Galium aparine = experiment: Post-emergence herbicidal evaluation, GALAP; conditions: three weeks after treatment
Alopecurus myosuroides [4] = experiment: Post-emergence herbicidal evaluation, ALOMY; conditions: three weeks after treatment
Triticum aestivum [5] = experiment: Pre-emergence herbicidal evaluation, TRZAW; type: in vivo; conditions: three weeks after treatment
Text: as §1

Oryza sativum [6] = experiment: Post-emergence herbicidal evaluation, ORYSA; conditions: three weeks after treatment
Amaranthus tuberculatus [7] = experiment: Pre-emergence herbicidal evaluation, AMATA; type: in vivo; conditions: three weeks after treatment
Text: as §1

Hordeum vulgare [8] = experiment: Post-emergence herbicidal evaluation, HORVW; conditions: three weeks after treatment
Description: Each pot is examined three weeks after treatment and phytotoxicity is assessed according to the rating system set forth below.
These acetone solutions are diluted with water and the resulting formulations applied at dosage levels equivalent of about 0.4 to 0.1 kg per hectare of test compound per pot. After spraying the plants are placed on greenhouse benches and are cared for in the usual manner, commensurate with conventional greenhouse practices.

Echinochloa crus-galli [9] = experiment: Pre-emergence herbicidal evaluation, ECHCG; type: in vivo; conditions: three weeks after treatment
Text: as §1

Amaranthus tuberculatus [10] = experiment: Post-emergence herbicidal evaluation, AMATA; type: in vivo; conditions: three weeks after treatment
Alopecurus myosuroides [11] = experiment: Pre-emergence herbicidal evaluation, ALOMY; type: in vivo; conditions: three weeks after treatment
Text: as §1

Lolium perenne [12] = experiment: Pre-emergence herbicidal evaluation, LOLPE; type: in vivo; conditions: three weeks after treatment
Text: as §1

Setaria viridis [13] = experiment: Pre-emergence herbicidal evaluation, SETVI; type: in vivo; conditions: three weeks after treatment
Text: as §1

Setaria viridis [14] = experiment: Post-emergence herbicidal evaluation, SETVI; conditions: three weeks after treatment
Glycine max [15] = experiment: Post-emergence herbicidal evaluation, GLXMA; conditions: three weeks after treatment
Lolium perenne [16] = experiment: Post-emergence herbicidal evaluation, LOLPE; conditions: three weeks after treatment
Echinochloa crus-galli [17] = experiment: Post-emergence herbicidal evaluation, ECHCG; conditions: three weeks after treatment
Apera spica venti [18] = experiment: Pre-emergence herbicidal evaluation, APESV; type: in vivo; conditions: three weeks after treatment
Text: as §1

Hordeum vulgare [19] = experiment: Pre-emergence herbicidal evaluation, HORVW; type: in vivo; conditions: three weeks after treatment
Text: as §1

Apera spica venti [20] = experiment: Post-emergence herbicidal evaluation, APESV; conditions: three weeks after treatment
Zea mays [21] = experiment: Pre-emergence herbicidal evaluation, ZEAMX; type: in vivo; conditions: three weeks after treatment
Text: as §1

Zea mays [22] = experiment: Post-emergence herbicidal evaluation, ZEAMX; conditions: three weeks after treatment

CCN(C(=O)COc1nnc(C(F)(F)C(F)(F)F)s1)C1=CC(C)(C)CC(C)=C1 [Example 8]
phytotoxicity rating TRZAW (Triticum aestivum [1]; 0.100 kg/ha): 0 (0 - No effect) | phytotoxicity rating TRZAW (Triticum aestivum [1]; 0.200 kg/ha): 0 (0 - No effect) | phytotoxicity rating TRZAW (Triticum aestivum [1]; 0.400 kg/ha): 1 (1 - Trace effect) | phytotoxicity rating GLXMA (Glycine max [2]; 0.100 kg/ha): 0 (0 - No effect) | phytotoxicity rating GLXMA (Glycine max [2]; 0.200 kg/ha): 0 (0 - No effect) | phytotoxicity rating GLXMA (Glycine max [2]; 0.400 kg/ha): 0 (0 - No effect) | phytotoxicity rating GLXMA (Glycine max [2]; 0.800 kg/ha): 0 (0 - No effect) | phytotoxicity rating ORYSA (Oryza sativum [3]; 0.100 kg/ha): 0 (0 - No effect) | phytotoxicity rating ORYSA (Oryza sativum [3]; 0.200 kg/ha): 0 (0 - No effect) | phytotoxicity rating ORYSA (Oryza sativum [3]; 0.400 kg/ha): 0 (0 - No effect) | phytotoxicity rating ORYSA (Oryza sativum [3]; 0.800 kg/ha): 1 (1 - Trace effect) | phytotoxicity rating GALAP (Galium aparine; 0.100 kg/ha): 0 (0 - No effect) | phytotoxicity rating GALAP (Galium aparine; 0.200 kg/ha): 0 (0 - No effect) | phytotoxicity rating GALAP (Galium aparine; 0.400 kg/ha): 5 (5 - Definite injury) | phytotoxicity rating ALOMY (Alopecurus myosuroides [4]; 0.100 kg/ha): 0 (0 - No effect) | phytotoxicity rating ALOMY (Alopecurus myosuroides [4]; 0.200 kg/ha): 4 (4 - Injury) | phytotoxicity rating ALOMY (Alopecurus myosuroides [4]; 0.400 kg/ha): 4 (4 - Injury) | phytotoxicity rating TRZAW (Triticum aestivum [5]; 0.100 kg/ha): 0 (0 - No effect) | phytotoxicity rating TRZAW (Triticum aestivum [5]; 0.200 kg/ha): 0 (0 - No effect) | phytotoxicity rating TRZAW (Triticum aestivum [5]; 0.400 kg/ha): 0 (0 - No effect) | phytotoxicity rating TRZAW (Triticum aestivum [5]; 0.800 kg/ha): 0 (0 - No effect) | phytotoxicity rating ORYSA (Oryza sativum [6]; 0.100 kg/ha): 0 (0 - No effect) | phytotoxicity rating ORYSA (Oryza sativum [6]; 0.200 kg/ha): 0 (0 - No effect) | phytotoxicity rating ORYSA (Oryza sativum [6]; 0.400 kg/ha): 2 (2 - Slight effect) | phytotoxicity rating AMATA (Amaranthus tuberculatus [7]; 0.100 kg/ha): 0 (0 - No effect) | phytotoxicity rating AMATA (Amaranthus tuberculatus [7]; 0.200 kg/ha): 1 (1 - Trace effect) | phytotoxicity rating AMATA (Amaranthus tuberculatus [7]; 0.400 kg/ha): 5 (5 - Definite injury) | phytotoxicity rating AMATA (Amaranthus tuberculatus [7]; 0.800 kg/ha): 6 (6 - Herbicidal effect) | phytotoxicity rating HORVW (Hordeum vulgare [8]; 0.100 kg/ha): 0 (0 - No effect) | phytotoxicity rating HORVW (Hordeum vulgare [8]; 0.200 kg/ha): 0 (0 - No effect) | phytotoxicity rating HORVW (Hordeum vulgare [8]; 0.400 kg/ha): 0 (0 - No effect) | phytotoxicity rating ECHCG (Echinochloa crus-galli [9]; 0.100 kg/ha): 1 (1 - Trace effect) | phytotoxicity rating ECHCG (Echinochloa crus-galli [9]; 0.200 kg/ha): 4 (4 - Injury) | phytotoxicity rating ECHCG (Echinochloa crus-galli [9]; 0.400 kg/ha): 4 (4 - Injury) | phytotoxicity rating ECHCG (Echinochloa crus-galli [9]; 0.800 kg/ha): 8 (8 - Approaching complete kill) | phytotoxicity rating AMATA (Amaranthus tuberculatus [10]; 0.100 kg/ha): 0 (0 - No effect) | phytotoxicity rating AMATA (Amaranthus tuberculatus [10]; 0.200 kg/ha): 0 (0 - No effect) | phytotoxicity rating AMATA (Amaranthus tuberculatus [10]; 0.400 kg/ha): 0 (0 - No effect) | melting point: 55 °C | phytotoxicity rating ALOMY (Alopecurus myosuroides [11]; 0.100 kg/ha): 1 (1 - Trace effect) | phytotoxicity rating ALOMY (Alopecurus myosuroides [11]; 0.200 kg/ha): 4 (4 - Injury) | phytotoxicity rating ALOMY (Alopecurus myosuroides [11]; 0.400 kg/ha): 6 (6 - Herbicidal effect) | phytotoxicity rating ALOMY (Alopecurus myosuroides [11]; 0.800 kg/ha): 8 (8 - Approaching complete kill) | phytotoxicity rating LOLPE (Lolium perenne [12]; 0.100 kg/ha): 1 (1 - Trace effect) | phytotoxicity rating LOLPE (Lolium perenne [12]; 0.200 kg/ha): 4 (4 - Injury) | phytotoxicity rating LOLPE (Lolium perenne [12]; 0.400 kg/ha): 6 (6 - Herbicidal effect) | phytotoxicity rating LOLPE (Lolium perenne [12]; 0.800 kg/ha): 6 (6 - Herbicidal effect) | phytotoxicity rating SETVI (Setaria viridis [13]; 0.100 kg/ha): 1 (1 - Trace effect) | phytotoxicity rating SETVI (Setaria viridis [13]; 0.200 kg/ha): 4 (4 - Injury) | phytotoxicity rating SETVI (Setaria viridis [13]; 0.400 kg/ha): 4 (4 - Injury) | phytotoxicity rating SETVI (Setaria viridis [13]; 0.800 kg/ha): 7 (7 - Good herbicidal effect) | phytotoxicity rating SETVI (Setaria viridis [14]; 0.100 kg/ha): 0 (0 - No effect) | phytotoxicity rating SETVI (Setaria viridis [14]; 0.200 kg/ha): 0 (0 - No effect) | phytotoxicity rating SETVI (Setaria viridis [14]; 0.400 kg/ha): 0 (0 - No effect) | phytotoxicity rating GLXMA (Glycine max [15]; 0.100 kg/ha): 2 (2 - Slight effect) | phytotoxicity rating GLXMA (Glycine max [15]; 0.200 kg/ha): 3 (3 - Moderate effect) | phytotoxicity rating GLXMA (Glycine max [15]; 0.400 kg/ha): 4 (4 - Injury) | phytotoxicity rating LOLPE (Lolium perenne [16]; 0.100 kg/ha): 1 (1 - Trace effect) | phytotoxicity rating LOLPE (Lolium perenne [16]; 0.200 kg/ha): 7 (7 - Good herbicidal effect) | phytotoxicity rating LOLPE (Lolium perenne [16]; 0.400 kg/ha): 8 (8 - Approaching complete kill) | phytotoxicity rating ECHCG (Echinochloa crus-galli [17]; 0.100 kg/ha): 0 (0 - No effect) | phytotoxicity rating ECHCG (Echinochloa crus-galli [17]; 0.200 kg/ha): 0 (0 - No effect) | phytotoxicity rating ECHCG (Echinochloa crus-galli [17]; 0.400 kg/ha): 0 (0 - No effect) | phytotoxicity rating APESV (Apera spica venti [18]; 0.100 kg/ha): 0 (0 - No effect) | phytotoxicity rating APESV (Apera spica venti [18]; 0.200 kg/ha): 0 (0 - No effect) | phytotoxicity rating APESV (Apera spica venti [18]; 0.400 kg/ha): 8 (8 - Approaching complete kill) | phytotoxicity rating APESV (Apera spica venti [18]; 0.800 kg/ha): 9 (9 - Complete kill) | phytotoxicity rating HORVW (Hordeum vulgare [19]; 0.100 kg/ha): 0 (0 - No effect) | phytotoxicity rating HORVW (Hordeum vulgare [19]; 0.200 kg/ha): 0 (0 - No effect) | phytotoxicity rating HORVW (Hordeum vulgare [19]; 0.400 kg/ha): 1 (1 - Trace effect) | phytotoxicity rating HORVW (Hordeum vulgare [19]; 0.800 kg/ha): 2 (2 - Slight effect) | phytotoxicity rating APESV (Apera spica venti [20]; 0.100 kg/ha): 0 (0 - No effect) | phytotoxicity rating APESV (Apera spica venti [20]; 0.200 kg/ha): 4 (4 - Injury) | phytotoxicity rating APESV (Apera spica venti [20]; 0.400 kg/ha): 6 (6 - Herbicidal effect) | phytotoxicity rating ZEAMX (Zea mays [21]; 0.100 kg/ha): 0 (0 - No effect) | phytotoxicity rating ZEAMX (Zea mays [21]; 0.200 kg/ha): 0 (0 - No effect) | phytotoxicity rating ZEAMX (Zea mays [21]; 0.400 kg/ha): 0 (0 - No effect) | phytotoxicity rating ZEAMX (Zea mays [21]; 0.800 kg/ha): 0 (0 - No effect) | phytotoxicity rating ZEAMX (Zea mays [22]; 0.100 kg/ha): 0 (0 - No effect) | phytotoxicity rating ZEAMX (Zea mays [22]; 0.200 kg/ha): 0 (0 - No effect) | phytotoxicity rating ZEAMX (Zea mays [22]; 0.400 kg/ha): 0 (0 - No effect)

— patent US6339042B1, “Herbicidal N-cyclohexadienyl heteroaryloxyacetamides” (American Cyanamid Co., priority 1999, dated 2002)
